# Results from US9140688B2, “Sperm staining and sorting methods” (INGURAN, LLC, priority 2011, dated 2015).
# Experiments:
# [1] = solvent water; shorter-wavelength local maximum; cited from earlier work
# [2] = tested on: X- and Y-chromosome bearing bovine sperm stained with Hoechst 33342; assay: Split quality: height of peak divided by height of valley (PV), flow cytometry of stained bovine sperm; assay type: cell-based; details: for Height of Peak/Height of Valley: Ex 5; for Height of Peak Divided by Height of Valley: Ex 7, Yellow 6 62 μM, Phenol Red 0 μM
# [3] = tested on: membrane compromised bovine sperm stained with Hoechst 33342; assay: Dead quenching: dead gate intensity divided by live gate intensity, flow cytometry of stained bovine sperm; assay type: cell-based; details: for Dead Intensity (dead gate intensity divided by live gate intensity): Ex 5
# Description: FIG. 4 illustrates an example bivariate plot and univariate histogram of the parameters measured during sex selection by a FACS on a flow cytometer. […] Without a dead quenching dye, both populations of sperm would overlap to a large extent, with unpredictable variations in the dead sperm.
# The entire ejaculate of sperm was suspended in first staining buffer, specifically a 7.4 pH TALP described in TABLE 1, to a concentration of 160×10^6 sperm per mL (determined on nucleocounter) and divided into three aliquots of about 20 mL into 50 mL Falcon tubes and pre-warmed for 10 minutes at 34° C. The DNA selective fluorescent dye, Hoechst 33342, was added and samples were held at 34° C. for 60 minutes. 3 different Hoechst 33342 Stain Levels were used=12 μL, 14 μL and 16 μL per 2 mL (effective concentrations of 48 μM, 56 μM, 64 μM).
# Preparation of the second buffer including the dead quenching dye—A 2 L bag of TALP, described in TABLE 1, was adjusted to pH 5.60 using HCl and then sterile filtered. […] For each of the four dyes tested (R40—red food dye No. 40, Y5—yellow food dye No. 5, Y6—yellow food dye No. 6 and PR—phenol red), an appropriate number of milligrams of each powder was placed in a Erlenmeyer Flask and then an exact amount of TALP pH 5.60 was added to create a […] concentration of the dye. The result was a working TALP stock for each dye with a 100% (125 μM) relative amount of dye 50% relative (62.5 μM) and 20% relative (25 μM) solutions were made by dilution of 100% by TALP pH 5.60.
# After this “bulk” staining for 60 minutes, 1 mL aliquots of stained sperm were combined with 1 mL aliquots of the second buffer including the dead quenching dyes. Samples sat for approximately 30 minutes at room temperature before being analyzed on a MoFlo SX (Beckman Coulter, USA) sperm sorting flow cytometer. Event rates were held as close to 13,000 as possible at the point of data acquisition.
# The total number of individual treatments was 42 tubes, each containing 2 mL of stained sample. The alignment of the sorter was established using nuclei and confirmed with live sample from the 50% Red 40 series. Once good alignment was established, each tube was placed on the sorter long enough to establish a stabile dead gate population (about 30 seconds) and then a screenshot was taken and saved as a .jpeg image. This approach of rapidly documenting each sample is used to assure the most consistent alignment between all samples. Realignment of sorter will not cause differences in the intensities of live and dead gate populations but will cause differences in split quality.
# FIG. 4 illustrates an example histogram. The ratio of dead gate intensity divided by live gate intensity is created by dividing the distance “A” by the distance “B” shown as a percentage. Lower values mean higher levels of quenching. The ratio of peak height divided by valley height is created by dividing the distance “C” by the distance “D”. A value of 1.00 means “no split” while higher values mean “better splits”. […]
# [4] = dye 62.5 μM, Hoechst 12 μL/2 mL
# [5] = dye 62.5 μM, Hoechst 14 μL/2 mL
# [6] = dye 62.5 μM, Hoechst 16 μL/2 mL
# [7] = Ex 6, dye 62.5 μM, resulting pH 6.70, Hoechst 48 μM
compound,measurement,setting,value
"O=S(=O)([O-])c1ccc(N=Nc2c(O)ccc3cc(S(=O)(=O)[O-])ccc23)cc1.[Na+].[Na+] [Yellow 6, Disodium 6-hydroxy-5-[(4-sulfophenyl)azo]-2-naphthalenesulfononate]",Expected Absorption Maxima,[1],480 nm
same,Height of Peak/Height of Valley,"[2]; dye 25 μM, Average of 12 and 14 μL series",2.06
same,Height of Peak/Height of Valley,"[2]; dye 25 μM, Hoechst 12 μL/2 mL",2.05
same,Height of Peak/Height of Valley,"[2]; dye 25 μM, Hoechst 14 μL/2 mL",2.07
same,Height of Peak/Height of Valley,"[2]; dye 25 μM, Hoechst 16 μL/2 mL",1.13
same,Height of Peak/Height of Valley,"[2]; dye 62.5 μM, Average of 12 and 14 μL series",1.66
same,Height of Peak/Height of Valley,[2]; [4],1.70
same,Height of Peak/Height of Valley,[2]; [5],1.62
same,Height of Peak/Height of Valley,[2]; [6],1.00
same,Height of Peak/Height of Valley,"[2]; dye 125 μM, Average of 12 and 14 μL series",1.77
same,Height of Peak/Height of Valley,"[2]; dye 125 μM, Hoechst 12 μL/2 mL",1.73
same,Height of Peak/Height of Valley,"[2]; dye 125 μM, Hoechst 14 μL/2 mL",1.80
same,Height of Peak/Height of Valley,"[2]; dye 125 μM, Hoechst 16 μL/2 mL",1.26
same,PV,[2]; [7],1.00
same,Height of Peak Divided by Height of Valley,[2]; cells 100 million per mL,1.26
same,Height of Peak Divided by Height of Valley,[2]; cells 150 million per mL,1.30
same,Height of Peak Divided by Height of Valley,[2]; cells 250 million per mL,1.25
same,Height of Peak Divided by Height of Valley,[2]; cells 300 million per mL,1.23
same,PV,"[2]; Ex 8, Bull 1, Hoechst 44 μM, Y6 50 μM alone",1.20
same,PV,"[2]; Ex 8, Bull 1, Hoechst 60 μM, Y6 50 μM alone",1.39
same,PV,"[2]; Ex 8, Bull 2, Hoechst 28 μM, Y6 50 μM alone",1.64
same,PV,"[2]; Ex 8, Bull 2, Hoechst 44 μM, Y6 50 μM alone",1.35
same,PV,"[2]; Ex 8, Bull 2, Hoechst 60 μM, Y6 50 μM alone",1.35
same,PV,"[2]; Ex 8, Bull 2, Hoechst 60 μM, Y6 375 μM alone",1.72
same,PV,"[2]; Ex 9, Bull 3, Hoechst 60 μM, Y6 50 μM, R3 0 μM, first Y6 series",1.26
same,PV,"[2]; Ex 9, Bull 3, Hoechst 60 μM, Y6 50 μM, R3 0 μM, second Y6 series",1.32
same,Dead Intensity (dead gate intensity divided by live gate intensity),"[3]; dye 25 μM, Average of Hoechst levels",71%
same,Dead Intensity (dead gate intensity divided by live gate intensity),"[3]; dye 25 μM, Hoechst 12 μL/2 mL",68%
same,Dead Intensity (dead gate intensity divided by live gate intensity),"[3]; dye 25 μM, Hoechst 14 μL/2 mL",74%
same,Dead Intensity (dead gate intensity divided by live gate intensity),"[3]; dye 25 μM, Hoechst 16 μL/2 mL",70%
same,Dead Intensity (dead gate intensity divided by live gate intensity),"[3]; dye 62.5 μM, Average of Hoechst levels",51%
same,Dead Intensity (dead gate intensity divided by live gate intensity),[3]; [4],50%
same,Dead Intensity (dead gate intensity divided by live gate intensity),[3]; [5],52%
same,Dead Intensity (dead gate intensity divided by live gate intensity),[3]; [6],52%
same,Dead Intensity (dead gate intensity divided by live gate intensity),"[3]; dye 125 μM, Average of Hoechst levels",39%
same,Dead Intensity (dead gate intensity divided by live gate intensity),"[3]; dye 125 μM, Hoechst 12 μL/2 mL",37%
same,Dead Intensity (dead gate intensity divided by live gate intensity),"[3]; dye 125 μM, Hoechst 14 μL/2 mL",40%
same,Dead Intensity (dead gate intensity divided by live gate intensity),"[3]; dye 125 μM, Hoechst 16 μL/2 mL",40%
same,Intensity (dead gate),[3]; [7],50%
same,quenching of the dead population compared to red food dye No. 40 (FIG. 3),"[3]; three bulls, equal amounts of Hoechst 33342 and of dye",superior quenching
